The source of these data is patent US8778985B2, “Inhibiting amyloid-beta peptide/rage interaction at the blood-brain barrier” (The University of Rochester, priority 2006, dated 2014).

Assay [1] relates to APPsw+/− mice. In words: CBF response to brain activation (whisker stimulation), chronic FPS2 treatment of APPsw+/− mice. The assay is classed as in vivo. Conditions: 1 mg/kg per day i.p. for two months from 8 months of age. The method, then:
(A) Percent increase in cerebral blood flow (CBF) in response to brain activation in mice treated with vehicle (open bar) or FPS2 (closed bar). (B-C) novel object location (B) and novel object recognition (C) expressed as percent exploratory preference in APPsw^+/− mice treated with vehicle (open bar) or FPS2 (closed bar). FPS2 (1 mg/kg per day) was intraperitoneally administered for two months beginning at the age of 8 months old mice. Values are means±s.e.m, n=5-6 per group.
APPsw^+/− mice were treated with FPS2 (1 mg/kg) or with vehicle daily by intraperitoneal injection for two months starting at 8 months old. At the end of the treatment period functional changes in cerebral blood flow (CBF) to brain activation, and memory tests were determined. Brain and plasma Aβ levels were also determined in FPS2 and vehicle treated mice. […]
Compounds were synthesized in parallel using semiautomated chemical reactions. […] Purity was assessed by reverse-phase gradient HPLC. […] After two months of treatment, (i) the cerebral blood flow response to brain activation (whisker stimulation) was measured and (ii) behavioral tests including operant learning, novel object location (NOL), and novel object recognition (NOR) were performed. After these functional tests, the mice were sacrificed and their brains analyzed for Aβ40, Aβ42, and amyloid levels. • CBF response to brain activation. […]

Assay [2] deals with RAGE-mediated transport of Aβ40 across the BBB. As to the kind of experiment: Arterial vascular brain perfusion: transport of 125I-Aβ40 across the BBB in APPsw+/− mice. The conditions noted are these: Mus musculus, read-out: inhibition of Aβ transport across the BBB. The assay is classed as in vivo. An excerpt: The statistical significance of differences is shown. Data are mean±s.e.m., n=3-4 per group.
An arterial vascular brain perfusion technique (LaRue et al., 2004) was used to determine whether FPS2 blocks RAGE-mediated transport of circulating ^125I-labeled Aβ40 across the BBB in 4-6 month old APPsw^+/− mice. We and others have reported that expression of RAGE in brain microvessels in these mice is increased by about 5-fold compared to the littermate controls (Deane et al., 2003; Donahue et al., 2004).

As for `CC(CC(=O)NCCCN(C(=O)c1cc([N+](=O)[O-])cc([N+](=O)[O-])c1)c1ccccc1)CC(C)(C)C` (centres unmarked) [FPS2, 3,5-dinitro-N-phenyl-N-[3-[(3,5,5-trimethyl-1-oxohexyl)amino]propyl]-(9Cl)-benzamide], the “increase of CBF during brain activation compared to vehicle” value in assay [1] is “about 50%”. In addition, the inhibition (as a rule, the drop in the measured response relative to a control, in per cent) at 4.8 µg/mL in assay [2] came out at 100%.
